Measured values: ChEMBL document CHEMBL4364283 (J Med Chem, 2019)
pIC50, pKd, pKi: −log10 of the molar value. Activity calls are given as the source filed them. No cut-off for these calls is given here.

Tests used:
MV4-11 [1] = experiment: cells; conditions: Homo sapiens, MV4-11, 96 h
Menin [2] = target: T1, Menin (Homo sapiens, UniProt O00255); experiment: Inhibition of FAM-probe binding to Menin (unknown origin) after 60 mins by fluorescence polarization competitive binding assay
T1 sequence (O00255 whole entry): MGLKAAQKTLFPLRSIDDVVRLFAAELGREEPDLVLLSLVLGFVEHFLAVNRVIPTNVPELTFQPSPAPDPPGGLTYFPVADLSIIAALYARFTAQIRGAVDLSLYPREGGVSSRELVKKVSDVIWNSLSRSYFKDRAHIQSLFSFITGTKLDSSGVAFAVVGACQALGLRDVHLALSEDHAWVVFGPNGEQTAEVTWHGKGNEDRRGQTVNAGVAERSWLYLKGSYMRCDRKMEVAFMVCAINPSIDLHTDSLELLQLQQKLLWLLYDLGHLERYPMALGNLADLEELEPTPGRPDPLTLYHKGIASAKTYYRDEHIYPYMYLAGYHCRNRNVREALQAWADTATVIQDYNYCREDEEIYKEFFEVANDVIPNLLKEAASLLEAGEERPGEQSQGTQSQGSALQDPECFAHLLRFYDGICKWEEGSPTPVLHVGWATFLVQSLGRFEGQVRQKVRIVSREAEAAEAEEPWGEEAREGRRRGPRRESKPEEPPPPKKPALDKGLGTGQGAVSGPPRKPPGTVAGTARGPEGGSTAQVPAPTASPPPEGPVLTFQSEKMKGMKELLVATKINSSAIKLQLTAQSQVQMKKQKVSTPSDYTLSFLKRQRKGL

HL-60 = experiment: Growth inhibition of human HL60 cells after 4 days by WST-8 assay; format: functional, cell-based; conditions: HL-60, 96 h
MOLM-13 = experiment: Growth inhibition of human MOLM13 cells after 4 days by WST-8 assay; format: functional, cell-based; conditions: MOLM-13, 96 h
Menin [3] = target: T1, Menin
[4] = target: T2, Menin/Histone-lysine N-methyltransferase MLL (Homo sapiens) (UniProt O00255+Q03164); conditions: 100 nM
T2 sequence (Q03164 1-2718 partner limits assumed, one chain of several): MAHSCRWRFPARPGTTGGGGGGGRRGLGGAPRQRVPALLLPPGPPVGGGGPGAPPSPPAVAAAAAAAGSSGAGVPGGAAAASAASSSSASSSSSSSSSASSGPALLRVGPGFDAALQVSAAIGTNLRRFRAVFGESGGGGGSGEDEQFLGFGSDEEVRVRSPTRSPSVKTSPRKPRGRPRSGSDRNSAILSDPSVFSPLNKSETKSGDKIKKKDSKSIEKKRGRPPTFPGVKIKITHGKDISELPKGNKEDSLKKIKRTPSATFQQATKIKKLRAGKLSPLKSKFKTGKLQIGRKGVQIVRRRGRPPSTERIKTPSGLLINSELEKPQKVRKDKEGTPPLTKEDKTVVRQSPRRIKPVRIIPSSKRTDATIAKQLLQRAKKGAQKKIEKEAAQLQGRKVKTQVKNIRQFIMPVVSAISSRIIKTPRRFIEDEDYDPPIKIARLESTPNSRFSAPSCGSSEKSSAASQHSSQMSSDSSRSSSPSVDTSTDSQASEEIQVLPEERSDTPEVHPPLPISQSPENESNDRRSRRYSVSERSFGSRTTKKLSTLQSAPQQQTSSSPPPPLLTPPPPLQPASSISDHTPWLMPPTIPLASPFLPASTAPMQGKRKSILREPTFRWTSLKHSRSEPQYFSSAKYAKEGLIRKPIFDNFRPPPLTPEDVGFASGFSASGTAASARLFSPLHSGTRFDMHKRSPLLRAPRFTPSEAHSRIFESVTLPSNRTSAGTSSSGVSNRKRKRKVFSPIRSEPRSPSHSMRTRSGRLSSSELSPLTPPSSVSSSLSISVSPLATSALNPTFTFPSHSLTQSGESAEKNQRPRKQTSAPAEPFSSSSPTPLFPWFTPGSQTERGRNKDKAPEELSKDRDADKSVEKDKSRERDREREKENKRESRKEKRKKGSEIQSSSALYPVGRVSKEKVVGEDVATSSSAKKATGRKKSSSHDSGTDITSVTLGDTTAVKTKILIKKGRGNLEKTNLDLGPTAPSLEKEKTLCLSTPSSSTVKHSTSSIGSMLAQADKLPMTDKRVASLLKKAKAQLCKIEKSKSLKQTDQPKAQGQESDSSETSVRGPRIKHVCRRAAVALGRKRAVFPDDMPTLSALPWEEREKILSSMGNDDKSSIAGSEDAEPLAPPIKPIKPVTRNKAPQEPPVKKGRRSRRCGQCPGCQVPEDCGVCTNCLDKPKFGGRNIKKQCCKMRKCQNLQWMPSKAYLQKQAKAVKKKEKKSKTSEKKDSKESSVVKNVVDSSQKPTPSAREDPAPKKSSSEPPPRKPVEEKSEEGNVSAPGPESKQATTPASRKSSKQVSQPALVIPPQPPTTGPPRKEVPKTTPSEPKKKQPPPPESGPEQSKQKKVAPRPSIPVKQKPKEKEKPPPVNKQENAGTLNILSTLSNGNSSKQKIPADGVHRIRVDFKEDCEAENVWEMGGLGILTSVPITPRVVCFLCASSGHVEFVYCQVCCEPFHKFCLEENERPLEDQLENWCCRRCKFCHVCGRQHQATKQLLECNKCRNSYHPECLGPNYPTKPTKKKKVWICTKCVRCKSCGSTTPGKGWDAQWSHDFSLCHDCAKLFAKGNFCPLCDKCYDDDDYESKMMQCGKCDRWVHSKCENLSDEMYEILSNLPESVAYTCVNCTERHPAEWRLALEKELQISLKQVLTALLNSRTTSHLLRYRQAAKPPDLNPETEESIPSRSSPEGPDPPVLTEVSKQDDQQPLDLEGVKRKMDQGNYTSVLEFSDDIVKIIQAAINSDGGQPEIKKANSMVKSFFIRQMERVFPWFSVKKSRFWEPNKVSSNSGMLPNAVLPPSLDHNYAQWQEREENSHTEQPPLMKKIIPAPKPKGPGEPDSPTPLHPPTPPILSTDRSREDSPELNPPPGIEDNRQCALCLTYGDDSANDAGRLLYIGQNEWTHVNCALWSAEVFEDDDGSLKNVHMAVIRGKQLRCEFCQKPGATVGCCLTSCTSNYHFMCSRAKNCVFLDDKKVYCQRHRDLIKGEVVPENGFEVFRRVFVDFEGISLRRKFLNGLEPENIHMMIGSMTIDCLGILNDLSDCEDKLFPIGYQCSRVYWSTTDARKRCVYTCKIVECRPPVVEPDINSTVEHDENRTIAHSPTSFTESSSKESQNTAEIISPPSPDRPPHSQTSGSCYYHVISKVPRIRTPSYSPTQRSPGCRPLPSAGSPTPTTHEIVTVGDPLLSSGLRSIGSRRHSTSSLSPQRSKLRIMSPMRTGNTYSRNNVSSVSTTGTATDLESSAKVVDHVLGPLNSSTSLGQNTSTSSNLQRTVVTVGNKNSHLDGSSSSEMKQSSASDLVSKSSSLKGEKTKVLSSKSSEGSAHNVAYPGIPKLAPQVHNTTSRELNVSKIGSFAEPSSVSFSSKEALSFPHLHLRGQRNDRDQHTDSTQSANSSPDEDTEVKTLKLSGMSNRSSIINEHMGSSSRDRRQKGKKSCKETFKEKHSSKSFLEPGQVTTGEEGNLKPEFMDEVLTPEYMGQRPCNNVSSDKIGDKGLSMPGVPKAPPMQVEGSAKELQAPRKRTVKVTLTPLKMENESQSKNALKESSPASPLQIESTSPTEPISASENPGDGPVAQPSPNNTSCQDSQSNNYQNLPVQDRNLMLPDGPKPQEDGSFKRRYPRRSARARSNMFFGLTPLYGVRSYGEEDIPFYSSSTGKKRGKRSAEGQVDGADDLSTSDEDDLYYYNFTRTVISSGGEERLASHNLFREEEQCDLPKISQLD
T2 sequence (Q03164 2719-3969 partner limits assumed, one chain of several): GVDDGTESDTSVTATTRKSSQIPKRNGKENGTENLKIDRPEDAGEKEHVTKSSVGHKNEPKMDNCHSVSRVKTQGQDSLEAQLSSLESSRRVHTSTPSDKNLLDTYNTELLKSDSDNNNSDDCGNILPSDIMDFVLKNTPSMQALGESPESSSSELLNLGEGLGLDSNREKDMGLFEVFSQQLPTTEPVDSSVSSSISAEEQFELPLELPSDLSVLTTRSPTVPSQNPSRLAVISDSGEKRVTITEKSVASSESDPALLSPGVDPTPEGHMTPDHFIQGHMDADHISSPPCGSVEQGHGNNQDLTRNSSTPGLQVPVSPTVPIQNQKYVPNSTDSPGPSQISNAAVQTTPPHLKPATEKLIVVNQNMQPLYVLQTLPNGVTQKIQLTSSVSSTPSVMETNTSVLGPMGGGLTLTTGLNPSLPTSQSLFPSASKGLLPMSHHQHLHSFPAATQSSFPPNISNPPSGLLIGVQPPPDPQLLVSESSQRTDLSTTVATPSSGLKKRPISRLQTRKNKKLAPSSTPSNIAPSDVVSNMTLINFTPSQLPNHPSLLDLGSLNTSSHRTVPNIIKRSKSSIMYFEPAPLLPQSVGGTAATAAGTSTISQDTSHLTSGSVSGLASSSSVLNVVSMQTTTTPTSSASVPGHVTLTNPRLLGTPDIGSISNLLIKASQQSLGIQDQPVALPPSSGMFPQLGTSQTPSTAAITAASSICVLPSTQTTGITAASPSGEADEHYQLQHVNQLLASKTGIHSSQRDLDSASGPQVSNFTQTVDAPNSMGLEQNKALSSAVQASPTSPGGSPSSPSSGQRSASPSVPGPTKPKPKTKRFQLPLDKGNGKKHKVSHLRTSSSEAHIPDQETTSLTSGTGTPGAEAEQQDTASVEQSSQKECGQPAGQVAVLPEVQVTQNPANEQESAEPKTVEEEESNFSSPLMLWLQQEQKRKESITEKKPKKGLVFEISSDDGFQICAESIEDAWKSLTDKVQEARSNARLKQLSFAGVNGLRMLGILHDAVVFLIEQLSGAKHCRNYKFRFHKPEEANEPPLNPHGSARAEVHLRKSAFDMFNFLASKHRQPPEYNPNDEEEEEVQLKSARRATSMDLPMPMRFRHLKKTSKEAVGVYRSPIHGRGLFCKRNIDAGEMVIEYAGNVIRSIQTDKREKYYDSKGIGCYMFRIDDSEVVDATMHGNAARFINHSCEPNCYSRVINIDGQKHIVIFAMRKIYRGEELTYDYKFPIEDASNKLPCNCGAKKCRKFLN

MV4-11 [5] = experiment: Induction of differentiation in human MV4-11 cells assessed as increase in CD11b positive cells at 0.03 to 3 uM after 24 hrs by phycoerythrin staining-based flow cytometric analysis; format: functional, cell-based
MV4-11 [6] = experiment: Induction of differentiation in human MV4-11 cells assessed as increase in CD11b positive cells after 48 hrs by phycoerythrin staining-based flow cytometric analysis; format: functional, cell-based
[7] = target: T2, Menin/Histone-lysine N-methyltransferase MLL (Homo sapiens); conditions: 30 to 300 nM
Mus musculus [8] = experiment: Downregulation of MEIS1 expression in tumors of mouse xenografted with human MV411 cells at 50 mg/kg , ip administered daily for 3 days and measured after 6 to 48 hrs by RT-qPCR analysis; format: functional, organism-based
Mus musculus [9] = experiment: Downregulation of Hoxa9 expression in tumors of mouse xenografted with human MV411 cells at 50 mg/kg , ip administered daily for 3 days and measured after 6 to 48 hrs by RT-qPCR analysis; format: functional, organism-based
[10] = target: T2, Menin/Histone-lysine N-methyltransferase MLL (Homo sapiens); conditions: 100 nM; remark: listed apart in the source
[11] = target: T2, Menin/Histone-lysine N-methyltransferase MLL (Homo sapiens); conditions: 30 to 300 nM; remark: listed apart in the source

Row | Structure (SMILES) | pIC50 (MV4-11 [1]) | pKi (Menin [2]) | pIC50 (Menin [2]) | further results
1 | O=S(=O)(c1ccncc1)c1ccc(N2CC(CN3CCC(C4(C5CCCC5)CN(CC5CC5)Cc5ccccc54)CC3)C2)cc1 (stereo not given) | 5.86 | 8.85 |  | 
2 | O=S(=O)(c1ccc(N2CC(CN3CCC(C4(C5CCCC5)NCCc5ccccc54)CC3)C2)cc1)C1CC1 (stereo not given) | 5.92 | 8.15 |  | 
3 | O=S(=O)(c1ccncc1)c1ccc(N2CC(CN3CCC(C4(C5CCCC5)CN(Cc5ccncc5)Cc5ccccc54)CC3)C2)cc1 (stereo not given) | 5.88 | 6.44 |  | 
4 | N#Cc1ccc(OCCCN2CCC(C3(C4CCCC4)NCCc4ccccc43)CC2)cc1 (stereo not given) | 5.85 |  |  | 
5 | CC(=O)N[C@H]1CCC[C@@H]1[C@](C#N)(c1ccccc1)C1CCN(CC2CN(c3ccc(C#N)cc3)C2)CC1 (racemic) | 5.41 | 7.49 | 6.99 | 
6 | O=S(=O)(c1ccncc1)c1ccc(N2CC(CN3CCC(C4(C5CCCC5)CN(CC5COC5)Cc5ccccc54)CC3)C2)cc1 (stereo not given) | 5.80 | 8.15 |  | 
7 | CCC(=O)O[C@H]1CCC[C@@H]1[C@](C#N)(c1ccccc1)C1CCN(CC2CN(c3ccc(C#N)cc3)C2)CC1 (mixture of isomers) | 5.66 | 8.01 | 7.48 | 
8 | CN1Cc2ccccc2C(C2CCCC2)(C2CCN(CC3CN(c4ccc(S(=O)(=O)c5ccncc5)cc4)C3)CC2)C1 (stereo not given) |  |  | 7.96 | pIC50 (HL-60): 5.60; pIC50 (MOLM-13): 5.37
9 | N#Cc1ccc(N2CCC(CN3CCC(C4(C5CCCC5)NCCc5ccccc54)CC3)C2)cc1 (stereo not given) | 5.62 | 7.57 | 7.06 | 
10 | CNC(=O)O[C@H]1CCC[C@@H]1[C@](C#N)(c1ccccc1)C1CCN(CC2CN(c3ccc(C#N)cc3)C2)CC1 (mixture of isomers) | 6.52 | 8.57 | 7.96 | 
11 | O=S(=O)(c1ccc(N2CC(CN3CCC(C4(C5CCCC5)NCCc5ccccc54)CC3)C2)cc1)C1CCCCC1 (stereo not given) | 5.96 | 8.62 | 8.00 | 
12 | CCN1Cc2ccccc2C(C2CCCC2)(C2CCN(CC3CN(c4ccc(S(=O)(=O)c5ccncc5)cc4)C3)CC2)C1 (stereo not given) | 6.08 | 9.00 |  | 
13 | CC(C)N1Cc2ccccc2C(C2CCCC2)(C2CCN(CC3CN(c4ccc(S(=O)(=O)c5ccncc5)cc4)C3)CC2)C1 (stereo not given) | 6.04 | 8.85 |  | 
14 | CC(=O)O[C@@H]1CCC[C@H]1[C@](C#N)(c1ccccc1)C1CCN(CC2CN(c3ccc(C#N)cc3)C2)CC1 (relative stereo) | 4.84 |  |  | 
15 | CC(=O)O[C@H]1CCC[C@@H]1[C@](C#N)(c1ccccc1)C1CCN(CC2CN(c3ccc(C#N)cc3)C2)CC1 (mixture of isomers) | 5.77 | 7.92 | 7.40 | 
16 | CS(=O)(=O)c1ccc(N2CC(CN3CCC(C4(C5CCCC5)NCCc5ccccc54)CC3)C2)cc1 (stereo not given) | 5.35 | 7.35 | 6.84 | 
17 | N#Cc1ccc(N2CC(CN3CCC(C(C#N)(c4ccccc4)C4CCCC4)CC3)C2)cc1 (racemic) | 4.77 | 6.02 | 5.52 | 
18 | CNC(=O)O[C@H]1CCC[C@@H]1[C@]1(C2CCN(CC3CN(c4ccc(S(=O)(=O)c5ccncc5)cc4)C3)CC2)CN(C)Cc2ccccc21 (mixture of isomers) |  | > 9.00 | 8.30 | pKd (Menin [3]): 8.85; inhibition [4]: Active; Activity (MV4-11 [5]): Active; Activity (MV4-11 [6]): Dose-dependent effect; inhibition [7]: Active; Activity (Mus musculus [8]): Active; Activity (Mus musculus [9]): Active; inhibition [10]: Active; inhibition [11]: Active
19 | CCS(=O)(=O)c1ccc(N2CC(CN3CCC(C4(C5CCCC5)NCCc5ccccc54)CC3)C2)cc1 (stereo not given) | 5.68 | 8.00 | 7.47 | 
